How the values were obtained:
NaV1.6 = NaV1.6 (Homo sapiens (Human), UniProt Q9UQD0); assay: Sodium Influx Assay (Flux), NaV1.6; settings: read-out: Flux NaV1.6 IC50; Trex HEK293 cells, ANG2 dye; arithmetic mean
NaV1.1 = NaV1.1 (Homo sapiens (Human), UniProt P35498); assay: Sodium Influx Assay (Flux), NaV1.1; format: cell-based; settings: Trex HEK293 cells, ANG2 dye; arithmetic mean

**Q.** Which IC50 (NaV1.6) does the source give for “(S)-2-fluoro-4-((1-(2-hydroxybenzyl)-pyrrolidin-3-yl)(methyDamino)-5-methyl-N-(thiazol-4-yl)benzenesulfonamide [Example 113]” here?
**A.** 0.258 µM

**Q.** What about the IC50 (NaV1.1) of the same substance?
**A.** 17.9 µM
